Values after ≈ are worked out from the molar mass of the structure shown. Read-outs that look alike come from different tables or passages of the source.
How the values were obtained:
[1] = test system: Bifidobacterium longum NCTC 11818; assay: microbe, parasite or virus in culture; settings: NCTC11818, read-out: Minimal Inhibitory Concentration (MIC)
E. faecalis = assay: microbe, parasite or virus in culture; settings: Enterococcus faecalis
E. coli = assay: microbe, parasite or virus in culture; settings: Escherichia coli
[2] = test system: Bacteroides thetaiotaomicron NCTC 10582; assay: microbe, parasite or virus in culture; settings: NCTC10582, read-out: Minimal Inhibitory Concentration (MIC)
Clostridium difficile = assay: microbe, parasite or virus in culture; format: cell-based; settings: Clostridioides difficile
Text: Compounds I to VII were screened against twelve clinical isolates of Clostridium difficile.
In addition, compounds L to LIII were screened against […] isolates of Clostridium difficile.

C. difficile spores = assay: Sporicidal activity: viable counts of C. difficile spores exposed to antibiotics; format: cell-based
Text: An agent capable of killing, or preventing the successful germination of C. difficile spores would therefore be of considerable interest. To determine the effects of type B lantibiotics on C. difficile spores, suspensions of spores were exposed to antibiotics ([…]) and aliquots were taken at appropriate time points. The spores in each aliquot were filtered off and plated out on to Brazier's agar.

[3] = test system: C. difficile strain VPI 10463; format: in vivo; settings: hamster, three times daily at 50 mg/kg/day, 5-day dosing period
Experimental: The in vivo efficacy of two type B Lantibiotics in the treatment of C. difficile infections was evaluated in the standard animal model for CDAD: clindamycin-induced cecitis in hamster (FIG. 3). Four groups of six animals were dosed orally with approximately 10^7 cells of C. difficile strain VPI 10463 and 24 hours later with a subcutaneous dose of 10 mg/kg clindamycin phosphate.

E. faecium = assay: microbe, parasite or virus in culture; settings: Enterococcus faecium
[4] = test system: Bifidobacterium adolescentis NCTC 11814; assay: microbe, parasite or virus in culture; settings: NCTC11814, read-out: Minimal Inhibitory Concentration (MIC)
[5] = test system: Bacteroides fragilis NCTC 9343; assay: microbe, parasite or virus in culture; settings: NCTC9343, read-out: Minimal Inhibitory Concentration (MIC)
[6] = VRE, read-out: Minimal Inhibitory Concentration (MIC)

With `CN[C@H](CC(C)C)C(=O)N[C@H]1C(=O)N[C@@H](CC(N)=O)C(=O)N[C@H]2C(=O)N[C@H]3C(=O)N[C@H](C(=O)N[C@H](C(=O)O)c4cc(O)cc(O)c4-c4cc3ccc4O)[C@H](O)c3ccc(c(Cl)c3)Oc3cc2cc(c3O[C@@H]2O[C@H](CO)[C@@H](O)[C@H](O)[C@H]2O[C@H]2C[C@](C)(N)[C@H](O)[C@H](C)O2)Oc2ccc(cc2Cl)[C@H]1O` [Vancomycin] the MIC [1] was 1 to 2 µg/mL (≈ 0.69 to 1.38 µM), the MIC (E. faecalis; ATCC29212, read-out: Minimal Inhibitory Concentration (MIC)) was 4 µg/mL (≈ 2.76 µM) and the MIC (E. faecalis; [6]) was over 64 µg/mL. For the same compound, the MIC (E. coli; ATCC25922, read-out: Minimal Inhibitory Concentration (MIC)) was over 64 µg/mL, the MIC (E. coli; read-out: Minimal Inhibitory Concentration (MIC)) was over 64 µg/mL and the MIC [2] was 64 µg/mL (≈ 44.2 µM). It also gave an MIC (Clostridium difficile; read-out: Minimal Inhibitory Concentration (MIC), C. difficile strain 027C) of 1 µg/mL (≈ 0.69 µM), an MIC (Clostridium difficile; read-out: Minimal Inhibitory Concentration (MIC), C. difficile strain 27SM) of 1 µg/mL (≈ 0.69 µM) and an MIC (Clostridium difficile; read-out: Minimal Inhibitory Concentration (MIC), C. difficile strain 19126) of 1 µg/mL (≈ 0.69 µM). It also gave an MIC (Clostridium difficile; read-out: Minimal Inhibitory Concentration (MIC), C. difficile strain 37779) of 2 µg/mL (≈ 1.38 µM), an MIC (Clostridium difficile; read-out: Minimal Inhibitory Concentration (MIC), C. difficile strain B32) of 1 µg/mL (≈ 0.69 µM) and an MIC (Clostridium difficile; read-out: Minimal Inhibitory Concentration (MIC), C. difficile strain E4) of 1 µg/mL (≈ 0.69 µM). For the same compound, the MIC (Clostridium difficile; read-out: Minimal Inhibitory Concentration (MIC), C. difficile strain E16) was 0.5 µg/mL (≈ 0.345 µM), the MIC (Clostridium difficile; read-out: Minimal Inhibitory Concentration (MIC), C. difficile strain E101) was 0.5 µg/mL (≈ 0.345 µM) and the MIC (Clostridium difficile; read-out: Minimal Inhibitory Concentration (MIC), C. difficile strain P24) was 0.5 µg/mL (≈ 0.345 µM). The MIC (Clostridium difficile; read-out: Minimal Inhibitory Concentration (MIC), C. difficile strain P49) was 1 µg/mL (≈ 0.69 µM), the MIC (Clostridium difficile; read-out: Minimal Inhibitory Concentration (MIC), C. difficile strain P59) was 1 µg/mL (≈ 0.69 µM) and the MIC (Clostridium difficile; read-out: Minimal Inhibitory Concentration (MIC), C. difficile strain P62) was 1 µg/mL (≈ 0.69 µM). For the same compound, the “Effect on C. difficile spore viability / germination” value (C. difficile spores; […]) was “no significant effect on spore viability”, the “Viable counts of C. difficile spores” value (C. difficile spores; antibiotic at 100 µg/ml, time 24 h) was 135 and the “Survival of infected animals” value [3] was “survived for the duration of the entire 5-day dosing period”. The MIC (E. faecium; ATCC19579, read-out: Minimal Inhibitory Concentration (MIC)) was 0.5 µg/mL (≈ 0.345 µM), the MIC (E. faecium; [6]) was over 64 µg/mL and the MIC [4] was 1 µg/mL (≈ 0.69 µM). For the same compound, the MIC [5] was 32 µg/mL (≈ 22.1 µM).

Reference: patent publication US8575094B2, “Use of type-B lantibiotic-based compounds having antimicrobial activity” (Novacta Biosystems Limited, priority 2007, dated 2013)
